Measured values as given in US20090156471A1, “Use of anti-amyloid agents for treating and typing pathogen infections” (RAMOT AT TEL AVIV UNIVERSITY LTD., priority 2005, published 2009).
“Also recorded” adds a separate entry of the source.

Columns and labels:
[1] = Circular dichroism (CD) spectra and copper binding
Description: FIGS. 2a-b are graphs showing copper binding to QHGGGN (SEQ ID NO: 5) peptide repeat. […] The titration of metal ions to the oligopeptide was performed using small aliquots from stock aqueous solutions of 25 mM CuCl2.2H2O. CD spectrum (250-800 nm) of QHGGGN (0.5 mM, pH 7.5) was measured with the addition of Cu^2+ in increments of 0.0125 mM (as a minimum) of CuCl2 (0.5 μl) from 0 up to 0.65 mM. Typically, 50 mM HEPES pH 7.5 buffer was used for CD studies. Spectra were obtained using an AVIV spectrapolarimeter and a 5 mm (FIG. 2a) and 10 mm (FIG. 2b) path length cuvettes.
Circular dichroism (CD) spectra and Copper binding—Circular Dichroism (CD) spectra, 250-800 nm, of the curli QHGGGN hexapeptide repeat in the absence and presence were preformed. […] The titration of metal ions to the oligopeptide was performed using small aliquots from stock aqueous solutions of 25 mM CuCl2-2H2O. CD spectrum (250-800 nm) of QHGGGN (0.5 mM, pH 7.5) was measured with the addition of Cu^2+ in increments of 0.0125 mM (as a minimum) of CuCl2 (0.5 μl) from 0 up to 0.65 mM. 50 mM HEPES pH 7.5 buffer was used for CD studies.

[2] = TEM analysis of peptide self-assembly into fibrillar structures; type: physicochemical; details: for self-assembly / fibril formation observed by TEM: peptide in water 10 to 50 mg/ml, room temperature, 3-6 days (micrographs: 50 mg/ml, 1 week)
Description: TEM analysis—In all examined cases, peptides were dissolved in water to a concentration of 10 to 50 mg/ml and incubated at room-temperature (RT). Fresh stocks were prepared for each and every experiment. […] Following 1 minute, excess fluid was removed, and the grid was then negatively stained with 10 μl of 2% uranyl-acetate in water. Following 2 minutes, excess fluid was removed from the grid. Samples were viewed in JEOL 1200 EX transmission electron microscope. In the experiments shown, 50 mg/ml peptides were used and micrographs were taken following 1 week. Bar represents 100 nm.

[3] = test system: curli-expressing E. coli K-12 XL1-Blue(pMRInv); assay: Quantitative Congo red (CR) binding of curli expressing bacteria; details: 0.3 mM peptide, FIG. 3a
Description: Binding units represent the decrease in absorbance (A487) of the CR solution after incubation with bacteria.
Congo red binding—Bacterial inoculums were grown in 6 ml LB medium for 5-7 hours at 37° C. in the presence or absence of 0.3 mM peptide inhibitor, until the cultures reached A600 of approximately 1.2. Each culture was then pelleted (1 min/13200×g) and resuspended in 6 ml saline (0.8% NaCl). Three double dilutions were performed for each culture and bacterial concentrations were determined at A600. Each dilution was divided into 3 microtubes (1 ml for each) and pelleted by centrifugation for 2 min/13200×g. A 0.004% solution of CR (in saline) was prepared and optical density at 487 nm was measured against a saline background. One thousand, 500 and 200 μl of CR solution were then added to each dilution triplets, the bacteria were well resuspended in the dye and left for 10 min incubation at RT. Next, a second centrifugation (2 min/13200×g) was performed and the supernatants containing the remaining dye were recovered. The optical density at 487 nm of each supernatant was determined and compared to the initial absorbance.
Inhibition was examined by directly applying the putative peptide inhibitor at time zero to a growing culture in liquid medium at 37° C. Cells analyzed for CR binding when reached optical density (A600) of approximately 1.2 absorbance units (AU).

[4] = test system: curli-expressing E. coli XL1-Blue(pMRInv) binding to bovine fibronectin; assay: Fibronectin binding (adhesion of bacteria to fibronectin coated wells); type: cell-based, Escherichia coli; details: 0.3 mM peptide, A405, FIG. 3b
Description: The adhesion of bacteria to fibronectin coated wells was determined by measuring absorbance at 405 nm. For (A) and (B), each column is the average of three experiments.
Fibronectin binding—Binding was quantified using the protocol described by Gophna et al (32). Briefly, wells of microtiter plates were coated with 100 μl of 5 μg/ml solution of bovine fibronectin (Sigma). The two strains of bacteria were grown to mid-exponential phase (A600, 0.5-0.6) with the various peptides in LB, harvested and suspended in saline. Wells were blocked with 200 μl milk (3%) for 2 hours at RT. Two hundreds micro-liter saline containing 5×10^8 cells/ml bacteria (A600, 0.9) were added to the wells with 0.3 mM of the suitable peptide and were incubated at RT for 3 h. Wells were washed twice with 200 μl PBS-T (0.05% Tween) and once with 200 μl PBS. The optical density of adherent bacteria was determined by the use of a microplate reader (ELISA) (A405), subtracting the optical density of an empty coated well.

[5] = test system: E. coli XL1-Blue(pMRInv) internalization into HEK293 cells; assay: Internalization assay (antibiotic protection assay) in HEK293 cells; details: 0.4 mM peptide, HEK293, 3 h at 37° C., gentamicin protection
Description: Internalization assay—Epithelial cells were grown overnight in 24-well plates to 80% confluence (˜10^5 cells per well). Bacteria were inoculated in LB broth and grown at 37° C. for 16 h, diluted 100-fold, and grown to mid-exponential phase (A600, 0.4) in the presence or absence of 0.4 mM peptide inhibitor. Bacteria were then diluted to A600, 0.1 in LB and 20 μl were added to each well with epithelial monolayer for 3 h incubation at 37° C. […] Cells were washed once with PBS, pH 7.3, and PBS containing 100 μg/ml gentamicin was added. After 1.5 h incubation, the cells were washed twice in PBS, and lysed by 5 min incubation with ice-cold 0.5% triton X-100. Appropriate bacterial dilutions were plated to determine the number of viable internalized bacteria. E. coli XL1-Blue was maintained on Luria-Bertani (LB) agar and E. coli XL1-Blue(pMRInv) was maintained on LB agar containing 30 μg/ml kanamycin. […]
For that purpose, an antibiotic protection assay was effected using HEK293 cell-line. […] Following exposure to the antibiotic gentamicin, eukaryotic cells were analyzed for bacteria internalization rate by the determination of the colony forming units (cfu) of the surviving bacteria (FIG. 4a).

[6] = biological target: the molecule itself; assay: TEM of peptide self-assembly

Molecule: QHGGGN [curli hexapeptide repeat]
- Cu^2+ binding stoichiometry ([1]; CD signal at 590 nm, peptide 0.5 mM, pH 7.5, 50 mM HEPES, CuCl2 0 up to 0.65 mM): equimolar binding stoichiometry; also recorded: single Cu^2+ ion binding for each peptide molecule
- affinity of copper binding for a single repeat ([1]; binding curve sigmoid at concentrations in the hundreds of μM range): not high
- fibrillization in the presence of copper ([2]; electron microscopy, 48 hours with equimolar CuCl2 in 50 mM HEPES, pH 7.5, room-temperature): did not induce fibrillization
- self-assembly / fibril formation observed by TEM [2]: assembled into fibrillar structures
- self-assembly / fibril formation observed by TEM ([2]; listed as NH2-QHGGGN-COOH): well-ordered fibrillar structures

Molecule: GQNHGG
- self-assembly / fibril formation observed by TEM [2]: fibril-like structured

Molecule: NHQGGG
- self-assembly / fibril formation observed by TEM [2]: small amount but highly ordered assemblies

Molecule: QFGGGN
- binding of CR in comparison to XL1-Blue(pMRInv) grown in absence of peptide [3]: no significant difference
- bacterial adhesion to fibronectin coated wells [4]: no significant effect
- fibril formation in a mixture of QFGGGN and QAGGGN peptides ([2]; mixture with QAGGGN, 3-6 days incubation, TEM): not inhibited
- self-assembly / fibril formation observed by TEM [2]: assembled into fibrillar structures
- self-assembly / fibril formation observed by TEM ([2]; listed as NH2-QFGGGN-COOH): well-ordered fibrillar structures
- amount of internalized bacteria (cfu) in eukaryotic cells [5]: did not interfere with bacterial invasion process

Molecule: QAGGGN
- binding of CR in comparison to XL1-Blue(pMRInv) grown in absence of peptide [3]: no significant difference
- bacterial adhesion to fibronectin coated wells [4]: no significant effect
- structures observed by TEM after prolonged incubation ([2]; following 30 days of incubation): only minor amounts of amorphous aggregates
- self-assembly / fibril formation observed by TEM [2]: ability was lost; also recorded: no ordered structures could be detected

Molecule: HGQGNG
- aggregation potential (amount of aggregates) of scrambled QHGGGN sequences ([2]; TEM, FIG. 1c): highly aggregative and much more abundant
- self-assembly / fibril formation observed by TEM [2]: amorphous aggregates

B1: QFGGGN peptide (NH2-QFGGGN-COOH) (peptide)
peptide: H-QFGGGN-OH
notes: also called curlin repeat; oligopeptide repeat QFGGGN
- binding result [6]: binds

B2: QHGGGN peptide (NH2-QHGGGN-COOH) (peptide)
peptide: H-QHGGGN-OH
notes: also called curli QHGGGN hexapeptide repeat
- binding result [6]: binds
